Assay results: US12077503B2, “Substituted cyclic amides and their use as herbicides” (FMC CORPORATION, priority 2015, dated 2024)

What was measured:
Assay type in all cases: in vivo
Kochia (Kochia scoparia) [1] = experiment: Test A preemergence; conditions: Bassia scoparia, pre-emergence, 240 h, 0 to 100 scale (0 no effect, 100 complete control), read-out: Plant response rating, Kochia
How it was run: (§1)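 Ratings of 0 (no effect) to 100 (complete control) come from visual comparison with untreated controls roughly 10 d after treatment. Test chemicals, formulated in a non-phytotoxic solvent mixture with surfactant, were applied either as a preemergence directed soil spray on seeded soil or postemergence to one- to two-leaf plants 2 to 10 cm tall.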

[2] = system: barnyardgrass (Echinochloa crus-galli); experiment: Test A preemergence; conditions: Echinochloa crus-galli, pre-emergence, 240 h, 0 to 100 scale (0 no effect, 100 complete control), read-out: Plant response rating, Barnyardgrass
How it was run: as §1

[3] = system: giant foxtail (Setaria faberii); experiment: Test A preemergence; conditions: Setaria faberi, pre-emergence, 240 h, 0 to 100 scale (0 no effect, 100 complete control), read-out: Plant response rating, Foxtail, Giant
How it was run: as §1

[4] = system: pigweed (Amaranthus retroflexus); experiment: Test A preemergence; conditions: Amaranthus retroflexus, pre-emergence, 240 h, 0 to 100 scale (0 no effect, 100 complete control), read-out: Plant response rating, Pigweed
[5] = system: ragweed (common ragweed, Ambrosia elatior); experiment: Test A preemergence; conditions: Ambrosia artemisiifolia, pre-emergence, 240 h, 0 to 100 scale (0 no effect, 100 complete control), read-out: Plant response rating, Ragweed
How it was run: as §1

[6] = system: ryegrass, Italian (Italian ryegrass, Lolium multiflorum); experiment: Test A preemergence; conditions: Lolium multiflorum, pre-emergence, 240 h, 0 to 100 scale (0 no effect, 100 complete control), read-out: Plant response rating, Ryegrass, Italian
How it was run: as §1

[7] = system: Galium (catchweed bedstraw, Galium aparine); experiment: Test A postemergence; conditions: Galium, post-emergence, 240 h, Postemergence, read-out: Plant response rating, Galium
How it was run: as §1

Kochia (Kochia scoparia) [8] = experiment: Test A postemergence; conditions: Bassia scoparia, post-emergence, 240 h, Postemergence, read-out: Plant response rating, Kochia
How it was run: as §1

[9] = system: barnyardgrass (Echinochloa crus-galli); experiment: Test A postemergence; conditions: Echinochloa crus-galli, post-emergence, 240 h, Postemergence, read-out: Plant response rating, Barnyardgrass
How it was run: as §1

[10] = system: blackgrass (Alopecurus myosuroides); experiment: Test A postemergence; conditions: Alopecurus myosuroides, post-emergence, 240 h, Postemergence, read-out: Plant response rating, Blackgrass
How it was run: as §1

corn (Zea mays) = experiment: Test A postemergence; conditions: Zea mays, post-emergence, 240 h, Postemergence
How it was run: as §1

[11] = system: giant foxtail (Setaria faberii); experiment: Test A postemergence; conditions: Setaria faberi, post-emergence, 240 h, Postemergence, read-out: Plant response rating, Foxtail, Giant
How it was run: as §1

[12] = system: pigweed (Amaranthus retroflexus); experiment: Test A postemergence; conditions: Amaranthus retroflexus, post-emergence, 240 h, Postemergence, read-out: Plant response rating, Pigweed
How it was run: as §1

[13] = system: ragweed (common ragweed, Ambrosia elatior); experiment: Test A postemergence; conditions: Ambrosia artemisiifolia, post-emergence, 240 h, Postemergence, read-out: Plant response rating, Ragweed
How it was run: as §1

[14] = system: ryegrass, Italian (Italian ryegrass, Lolium multiflorum); experiment: Test A postemergence; conditions: Lolium multiflorum, post-emergence, 240 h, Postemergence, read-out: Plant response rating, Ryegrass, Italian
How it was run: as §1

[15] = 125 g ai/ha, visual injury after approx. 10 d, 0 to 100 scale, 0 no effect, 100 complete control
[16] = 500 g ai/ha, visual injury, 0 to 100 scale (0 no effect, 100 complete control), approx. 10 d

`O=C1NC[C@H](c2cncc(C(F)(F)F)c2)[C@H]1C(=O)Nc1cccc(F)c1F` [Compound 1394] was tested. Which pest or weed control at 500 g/ha (Kochia (Kochia scoparia) [1]; 500 g ai/ha, preemergence) did it give?
Its pest or weed control at 500 g/ha is 60%.

And the pest or weed control at 125 g/ha (Kochia (Kochia scoparia) [1]; Preemergence, 125 g ai/ha)?
The pest or weed control at 125 g/ha was 40%.

And the pest or weed control at 500 g/ha ([2]; 500 g ai/ha, preemergence)?
Its pest or weed control at 500 g/ha is 90%.

What about the pest or weed control at 125 g/ha ([2]; Preemergence, 125 g ai/ha) of the same compound?
The pest or weed control at 125 g/ha was 90%.

What about the pest or weed control at 500 g/ha ([3]; 500 g ai/ha, preemergence) of the same compound?
Its pest or weed control at 500 g/ha is 90%.

What about the pest or weed control at 125 g/ha ([3]; Preemergence, 125 g ai/ha) of the same compound?
The pest or weed control at 125 g/ha was 90%.

What about the pest or weed control at 500 g/ha ([4]; 500 g ai/ha, preemergence) of the same compound?
The pest or weed control at 500 g/ha was 30%.

And the pest or weed control at 125 g/ha ([4]; Preemergence, 125 g ai/ha)?
The pest or weed control at 125 g/ha was 0%.

And the pest or weed control at 500 g/ha ([5]; 500 g ai/ha, preemergence)?
Its pest or weed control at 500 g/ha is 80%.

What about the pest or weed control at 125 g/ha ([5]; Preemergence, 125 g ai/ha) of the same compound?
Its pest or weed control at 125 g/ha is 20%.

What about the pest or weed control at 500 g/ha ([6]; 500 g ai/ha, preemergence) of the same compound?
The pest or weed control at 500 g/ha was 60%.

What about the pest or weed control at 125 g/ha ([6]; Preemergence, 125 g ai/ha) of the same compound?
The pest or weed control at 125 g/ha was 50%.

What about the pest or weed control at 125 g/ha [7, 15] of the same compound?
Its pest or weed control at 125 g/ha is 50%.

What about the pest or weed control at 500 g/ha [7, 16] of the same compound?
Its pest or weed control at 500 g/ha is 60%.

And the pest or weed control at 125 g/ha (Kochia (Kochia scoparia) [8]; [15])?
The pest or weed control at 125 g/ha was 0%.

And the pest or weed control at 500 g/ha (Kochia (Kochia scoparia) [8]; [16])?
Its pest or weed control at 500 g/ha is 0%.

What about the pest or weed control at 125 g/ha [9, 15] of the same compound?
Its pest or weed control at 125 g/ha is 90%.

What about the pest or weed control at 500 g/ha [9, 16] of the same compound?
The pest or weed control at 500 g/ha was 90%.

What about the pest or weed control at 125 g/ha [10, 15] of the same compound?
Its pest or weed control at 125 g/ha is 0%.

And the pest or weed control at 500 g/ha [10, 16]?
Its pest or weed control at 500 g/ha is 60%.

And the Corn plant response rating (crop injury, 0 = no effect, 100 = complete kill) at 125 g/ha (corn (Zea mays); [15])?
The Corn plant response rating (crop injury, 0 = no effect, 100 = complete kill) at 125 g/ha was 40%.

What about the Corn plant response rating (crop injury, 0 = no effect, 100 = complete kill) at 500 g/ha (corn (Zea mays); [16]) of the same compound?
The Corn plant response rating (crop injury, 0 = no effect, 100 = complete kill) at 500 g/ha was 70%.

What about the pest or weed control at 125 g/ha [11, 15] of the same compound?
Its pest or weed control at 125 g/ha is 80%.

And the pest or weed control at 500 g/ha [11, 16]?
Its pest or weed control at 500 g/ha is 90%.

And the pest or weed control at 125 g/ha [12, 15]?
Its pest or weed control at 125 g/ha is 0%.

What about the pest or weed control at 500 g/ha [12, 16] of the same compound?
The pest or weed control at 500 g/ha was 20%.

And the pest or weed control at 125 g/ha [13, 15]?
The pest or weed control at 125 g/ha was 0%.

What about the pest or weed control at 500 g/ha [13, 16] of the same compound?
Its pest or weed control at 500 g/ha is 20%.

And the pest or weed control at 125 g/ha [14, 15]?
The pest or weed control at 125 g/ha was 0%.

And the pest or weed control at 500 g/ha [14, 16]?
Its pest or weed control at 500 g/ha is 20%.
